For data set [1], the system named is Escherichia coli. Description: Antibacterial activity against Escherichia coli K12 harbouring wild type elongation factor P at 500 uM incubated for 240 mins by turbidity based analysis. Format: functional, organism-based.
The test system of data set [2] is Escherichia coli. Description: Antibacterial activity against Escherichia coli K12 harbouring elongation factor P deltayjeK variant assessed as reduction in bacterial growth at 500 uM incubated for 240 mins by turbidity based analysis. The class given is functional, organism-based.
Data set [3] concerns Escherichia coli. As to the kind of experiment: Antibacterial activity against Escherichia coli K12 harbouring elongation factor P deltapoxA variant assessed as reduction in bacterial growth at 500 uM incubated for 240 mins by turbidity based analysis. Format: functional, organism-based.
The test system of data set [4] is Escherichia coli. Description: Antibacterial activity against Escherichia coli K12 harbouring elongation factor P delta-efp variant assessed as reduction in bacterial growth at 500 uM incubated for 240 mins by turbidity based analysis. The class given is functional, organism-based.
The nature of data set [5]: Cytotoxicity against HEK293 cells assessed as cell survival rate at 50 uM relative to control. The class given is toxicity, cell-based. As to conditions: human, read-out: Survival.
For data set [6], the system named is Escherichia coli. Description: Antibacterial activity against Escherichia coli K12 harbouring elongation factor P deltayjeK variant assessed as restoration in bacterial growth at 500 uM incubated for 240 mins in presence of gentamicin by turbidity based analysis. Format: functional, organism-based.
A short description of data set [7]: Cytotoxicity against HEK293 cells assessed as inhibition of cell growth. Format: toxicity, cell-based. As to conditions: human.
Data set [8] in a line: Cytotoxicity against HEK293 cells assessed as cell survival rate at 500 uM relative to control. Format: toxicity, cell-based. The conditions noted are these: human, read-out: Survival.
Data set [9] deals with Escherichia coli. Description: Antibacterial activity against Escherichia coli K12 harbouring elongation factor P deltayjeK variant assessed as reduction in bacterial growth incubated for 240 mins by turbidity based analysis. The class given is functional, organism-based.

This note sets out measurements from ChEMBL document CHEMBL5131441, “De-novo designed β-lysine derivatives can both augment and diminish the proliferation rates of E. coli through the action of Elongation Factor P” (Bioorg Med Chem Lett, 2022).

Active and inactive are the calls of the source. The calls are words filed in the database; no cut-off is given here.

For `NCCCCCCCCCCCCNCCCC(N)CC(=O)O` (racemic), the outcome in the data set on Escherichia coli [1], in the data set with Escherichia coli [2], in the data set on Escherichia coli [3] and with Escherichia coli [4] was Active. Also, in [5], the viability at 50 µM came to 14%. Regarding `CCCCCCNCCCC(N)CC(=O)O` (racemic), the outcome in the data set on Escherichia coli [6] was Active. For the same molecule, the IC50 in data set [7] came to 110 µM.

`NCCCCCCCCCCNCCCC(N)CC(=O)O` (racemic): the outcome in the data set with Escherichia coli [1] and in the data set with Escherichia coli [2] was Active. Further, the IC50 in [7] was 250 µM. The viability at 50 µM in [5] was determined as 81%. The viability at 500 µM in data set [8] was 0%. With `CC(=O)NCCCC(N)CC(=O)O` (racemic), in the data set with Escherichia coli [6], the result was Active. As to `CCCNCCCC(N)CC(=O)O` (racemic), the outcome in the data set with Escherichia coli [6] was Active. For the molecule `CCNCCCC(N)CC(=O)O` (racemic), the result in the data set with Escherichia coli [6] was Active. In the case of `CNCCCC(N)CC(=O)O` (racemic), the result in the data set with Escherichia coli [6] was Active. Take `NC(CCCNCc1ccccc1)CC(=O)O` (racemic): in the data set on Escherichia coli [6], the outcome was Active. For the molecule `NCCCCC(N)CC(=O)O` (racemic), the outcome with Escherichia coli [2] was Active. For the molecule `NCCCCCCCCCCCNCCCC(N)CC(=O)O` (racemic), the result in the data set with Escherichia coli [1] was Active. For the molecule `NCCCCCCCCNCCCC(N)CC(=O)O` (racemic), the result in the data set on Escherichia coli [6] was Active. On to GENTAMICIN, for which the result with Escherichia coli [2] was Active. Besides, in the data set on Escherichia coli [9], the MIC was 6 µg/mL.
